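Growth conditions: 96-well plates. Treatment: test compound, 48 hours, 5 concentrations. Analysis: linear interpolation between bracketing concentrations; unreached endpoints set to highest concentration. TGI denotes the concentration required for complete inhibition of growth.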
Legend:
Experiment in all cases: NCI anticancer screen, dose series, 48 h
[1] = system: 786-0 renal
[2] = system: A498 renal
[3] = system: A549 NSCLC
[4] = system: ACHN renal
[5] = system: BT-549 breast
[6] = system: CAKI-1 renal
[7] = system: CCRF-CEM leukemia
[8] = system: COLO 205 colon
[9] = system: DU-145 prostate
[10] = system: EKVX NSCLC
[11] = system: HCC-2998 colon
[12] = system: HCT-116 colon
[13] = system: HCT-15 colon
[14] = system: HL-60(TB) leukemia
[15] = system: HOP-62 NSCLC
[16] = system: HOP-92 NSCLC
[17] = system: HS 578T breast
[18] = system: HT29 colon
[19] = system: IGROV1 ovarian
[20] = system: K-562 leukemia
[21] = system: KM12 colon
[22] = system: LOX IMVI melanoma
[23] = system: M14 melanoma
[24] = system: MALME-3M melanoma
[25] = system: MCF7 breast
[26] = system: MDA-MB-435
[27] = system: MDA-N
[28] = system: NCI-H23 lung
[29] = system: NCI-H460 lung
[30] = system: NCI-H522 lung
[31] = system: NCI/ADR-RES ovarian
[32] = system: OVCAR-3 ovarian
[33] = system: OVCAR-4 ovarian
[34] = system: OVCAR-5 ovarian
[35] = system: OVCAR-8 ovarian
[36] = system: PC-3 prostate
[37] = system: RPMI-8226 leukemia
[38] = system: RXF 393 renal
[39] = system: SF-268 CNS
[40] = system: SF-295 CNS
[41] = system: SF-539 CNS
[42] = system: SK-MEL-2 melanoma
[43] = system: SK-MEL-28 melanoma
[44] = system: SK-MEL-5 melanoma
[45] = system: SN12C renal
[46] = system: SNB-19 CNS
[47] = system: SNB-75 CNS
[48] = system: SR leukemia
[49] = system: SW-620 colon
[50] = system: T-47D breast
[51] = system: TK-10 renal
[52] = system: U251 CNS
[53] = system: UACC-257 melanoma
[54] = system: UACC-62 melanoma
[55] = system: UO-31 renal
[56] = system: MDA-MB-231 breast
[57] = system: MOLT-4 leukemia
[58] = system: NCI-H226 lung

COc1ccccc1C1c2cc3c(cc2OC(N2CCCC2)C1C)OCO3 (stereo not given)
TGI [1]: 35.3 µM
TGI [2]: 30.3 µM
TGI [3]: 46 µM
TGI [4]: > 57.5 µM
TGI [5]: 48 µM
TGI [6]: 31.4 µM
TGI [7]: 47.8 µM
TGI [8]: 35.6 µM
TGI [9]: 26.9 µM
TGI [10]: 50.6 µM
TGI [11]: 32.9 µM
TGI [12]: 29.1 µM
TGI [13]: 44.6 µM
TGI [14]: 49 µM
TGI [15]: 29.4 µM
TGI [16]: 20.6 µM
TGI [17]: 30 µM
TGI [18]: 39.5 µM
TGI [19]: 51.5 µM
TGI [20]: > 53.3 µM
TGI [21]: 39.5 µM
TGI [22]: 38.1 µM
TGI [23]: 30.1 µM
TGI [24]: 43.2 µM
TGI [25]: 39.4 µM
TGI [26]: 34.2 µM
TGI [27]: 28.9 µM
TGI [28]: > 31.6 µM
TGI [29]: 40.9 µM
TGI [30]: 42.1 µM
TGI [31]: 53.7 µM
TGI [32]: 32.4 µM
TGI [33]: 70.5 µM
TGI [34]: 41.1 µM
TGI [35]: 64 µM
TGI [36]: 32.4 µM
TGI [37]: 38.8 µM
TGI [38]: 36.9 µM
TGI [39]: 30.9 µM
TGI [40]: 39.3 µM
TGI [41]: 31.7 µM
TGI [42]: 29.8 µM
TGI [43]: 48 µM
TGI [44]: 29.4 µM
TGI [45]: 39.7 µM
TGI [46]: 47.9 µM
TGI [47]: 27.3 µM
TGI [48]: 31.1 µM
TGI [49]: 44.7 µM
TGI [50]: 25.5 µM
TGI [51]: 47.9 µM
TGI [52]: 39.1 µM
TGI [53]: 48.1 µM
TGI [54]: 38.4 µM
TGI [55]: 33 µM

Cc1ccc(/C=C2\Cc3cc(C)c(C)cc3C2=O)c(C(=O)O)c1
TGI [1]: > 100 µM
TGI [2]: 61.3 µM
TGI [3]: > 100 µM
TGI [4]: > 100 µM
TGI [5]: 82.6 µM
TGI [6]: > 100 µM
TGI [7]: > 100 µM
TGI [9]: > 100 µM
TGI [10]: > 100 µM
TGI [11]: > 100 µM
TGI [12]: > 100 µM
TGI [13]: > 100 µM
TGI [14]: > 100 µM
TGI [15]: > 100 µM
TGI [17]: > 100 µM
TGI [18]: > 100 µM
TGI [19]: > 100 µM
TGI [20]: > 100 µM
TGI [21]: > 100 µM
TGI [22]: > 100 µM
TGI [24]: > 100 µM
TGI [25]: > 100 µM
TGI [56]: > 100 µM
TGI [27]: > 100 µM
TGI [57]: > 100 µM
TGI [58]: 89.1 µM
TGI [29]: > 100 µM
TGI [30]: > 100 µM
TGI [32]: > 100 µM
TGI [35]: > 100 µM
TGI [36]: > 100 µM
TGI [37]: > 100 µM
TGI [38]: > 100 µM
TGI [39]: > 100 µM
TGI [40]: > 100 µM
TGI [41]: 74.7 µM
TGI [42]: > 100 µM
TGI [43]: > 100 µM
TGI [44]: > 100 µM
TGI [45]: > 100 µM
TGI [46]: > 100 µM
TGI [47]: > 100 µM
TGI [48]: > 100 µM
TGI [49]: > 100 µM
TGI [50]: > 100 µM
TGI [51]: > 100 µM
TGI [52]: > 100 µM
TGI [53]: > 100 µM
TGI [54]: > 100 µM
TGI [55]: > 100 µM

From PubChem BioAssay (NCI)
